Values joined by “and” are separate entries in the source; they are usually repeats but may differ in a detail not shown here. Identical values can stand only once. Like-named read-outs stand apart in the source and are kept apart here.
Legend:
[1] = Face mask inhalation in beagle dogs: hematology; assay type: in vivo; conditions: inhalation Day 0 and Day 7, successive samplings
Experimental: (§1) Once adequately conditioned to the restraint device and face-masks, the animals are individually exposed to the test article aerosols. Animals receive a single face-mask inhalation exposure in a ramp study design to test article aerosols for up to 60 min. Animal observations during and post exposure determine the tolerance of inhaled BisEDT aerosols.
(§2) Group 1 (vehicle) are exposed to a vehicle atmosphere for 30 minutes. Group 2 (50 μg/kg) are exposed to BisEDT for 30 minutes. Target concentrations and exposure durations for Groups 3-5 are based on the presence of any toxicity via clinical observations or gross necropsy findings. In each of Groups 3-5, if no adverse clinical signs of toxicity are observed, the next groups' exposure will be conducted at a higher target dose. If adverse clinical signs of toxicity are observed, the next groups' exposure will be conducted at a lower target dose. This approach is repeated for all BisEDT doses. The final documented exposure duration is the maximum tolerated dose or the maximum feasible dose.
The aerosol generation system couples a commercially available compressed air jet nebulizer to a chamber that allows the aerosols to transition to the animals. […]
Hematology samples are analyzed by automated (ADVIA™ 120 Hematology System, Siemens Medical Solutions Diagnostics, Tarrytown, N.Y.) analyses. Disposition will be recorded on the sample processing form.

[2] = Face mask inhalation in beagle dogs: clinical chemistry; assay type: in vivo; conditions: sampling times not given
Experimental: as §1, §2
The aerosol generation system couples a commercially available compressed air jet nebulizer to a chamber that allows the aerosols to transition to the animals. Exposure is by face-mask inhalation per the study design above. […] Formulation concentration and exposure duration are modulated to achieve target doses if necessary.
Blood Collections and Bioanalytical Analysis: Blood are collected for pharmacokinetic (PK) analysis prior to exposure, then at 4 hr (±5 min) post exposure, and again on Day 1, Day 2, Day 7 (pre- and 4 hr (±5 min)-post exposure), Day 8, Day 9, Day 10, Day 11, Day 12, Day 13, and Day 14. A total of 0.25 mL is collected at each timepoint. No PK blood is collected from the vehicle control (Group 1) animals; only animals exposed to BisEDT have blood collected for PK analysis. Collected samples are flash frozen without processing for shipment to Medpace for bioanalytical analysis. Additional blood is collected from all animals in all groups for hematology (1 mL) and clinical chemistry (1 mL) at baseline, Day 7 (pre-exposure), and again at euthanasia. Blood (2-2 mL) is collected from all animals at necropsy for coagulation analysis (d-Dimer, fibrinogen, PT, and PTT).
For clinical chemistry analyses, whole blood (1 mL) is placed into serum separator or clot tube and […] by centrifugation at a minimum of 1300 g at 2 to 8° C. for 10 (±1) min. Plasma samples are stored at −70 to −90° C. until analysis.
Clinical chemistry samples are analyzed on a Hitachi Modular Analytics Clinical Chemistry System (Roche Diagnostics, Indianapolis, Ind.).

E. coli ATCC 25922 = conditions: control strain ATCC 25922; per CLSI M100-S24 or provided by Microbion; cited from earlier work
[3] = test system: B. cenocepacia (B cepacia complex); assay: MIC against CF bacterial strains (Example 5); conditions: Burkholderia cenocepacia
C. parapsilosis = assay: Broth microdilution MIC, yeast (Example 11); assay type: cell-based
S. aureus ATCC 29213 = assay: Broth microdilution MIC, ATCC QC organism (Example 12); conditions: Staphylococcus aureus, ATCC29213
A. fumigatus = assay: Broth microdilution antifungal susceptibility (Example 13); assay type: cell-based; conditions: for MIC: Aspergillus fumigatus
[4] = Grp 1 (1001 Male, 1002 Female, Avg), 3 lines per subject
[5] = Grp 2 (2001 Male, 2002 Female, Avg), 3 lines per subject
[6] = Grp 3 (3001 Male, 3002 Female, Avg), 3 lines per subject
[7] = Grp 4 (4001 Male, 4004 Female, Avg; 4002 Female, 4003 Male), 2-3 lines per subject

In the case of C1C[S][Bi]([S]CC[S][Bi]2[S]CC[S]2)[S]1 [BisEDT, bismuth-1,2-ethanedithiol], the LUC ([1]; dog Group 2, lung deposited 55-56 ug/kg, lines = animal 2001, 2002 or Grp Avg) was 0.01 ^3/uL and 0.02 ^3/uL, the LUC ([1]; dog Group 4, lung deposited 176-197 ug/kg, lines = animal 4001-4004 or Grp Avg) was 0.01 ^3/uL and 0.02 ^3/uL and the AGR [2, 4] was 2.6 and 1.9 (2×) and 2.1 (2×). The ALB [2, 4] was 3.7 g/dL, the ALPK [2, 4] was 125 IU/L and 120 IU/L and 248 IU/L and 243 IU/L and 235 IU/L and 91 IU/L and the ALT [2, 4] was 26 IU/L and 27 IU/L and 29 IU/L and 21 IU/L. The AST [2, 4] was 33 IU/L (2×) and 29 IU/L (2×) and 27 IU/L, the BUN [2, 4] was 13 mg/dL (2×) and 17 mg/dL and the CA2 [2, 4] was 10.3 mg/dL. For the same compound, the CHOL [2, 4] was 129 mg/dL and 116 mg/dL and 132 mg/dL and 130 mg/dL and 107 mg/dL, the CREA [2, 4] was 0.5 mg/dL and the GLOB [2, 4] was 1.4 g/dL and 1.5 g/dL and 1.8 g/dL. The GLUC [2, 4] was 88 mg/dL and 89 mg/dL and 90 mg/dL and 78 mg/dL and 92 mg/dL (2×), the K [2, 4] was 4.5 mmo/L and 4.7 mmo/L (2×) and 4.2 mmo/L and 5.1 mmo/L and the Na [2, 4] was 150 mmo/L. For the same compound, the TP [2, 4] was 5.5 g/dL and 4.9 g/dL, the TRIG [2, 4] was 32 mg/dL and 29 mg/dL and 53 mg/dL and 39 mg/dL and 38 mg/dL and 37 mg/dL and the AGR [2, 5] was 1.9 and 2.0 and 1.7 and 2.3 (2×). For the same compound, the ALB [2, 5] was 3.4 g/dL and 3.7 g/dL, the ALT [2, 5] was 22 IU/L (3×) and 18 IU/L and 29 IU/L and 27 IU/L and the AST [2, 5] was 48 IU/L and 36 IU/L (2×) and 35 IU/L and 41 IU/L and 38 IU/L. The BUN [2, 5] was 12 mg/dL and 16 mg/dL and 14 mg/dL (2×), the CHOL [2, 5] was 114 mg/dL and the Cl [2, 5] was 108 mmo/L and 110 mmo/L and 114 mmo/L. For the same compound, the GLOB [2, 5] was 2.0 g/dL and 1.9 g/dL and 1.6 g/dL (2×), the GLUC [2, 5] was 91 mg/dL and 97 mg/dL and 95 mg/dL and 89 mg/dL and the K [2, 5] was 4.5 mmo/L and 4.9 mmo/L and 5.0 mmo/L and 5.2 mmo/L and 4.6 mmo/L. The TP [2, 5] was 5.0 g/dL and 5.5 g/dL and 5.3 g/dL, the TRIG [2, 5] was 66 mg/dL and 80 mg/dL and 63 mg/dL and 38 mg/dL and 39 mg/dL and 31 mg/dL and the AGR [2, 6] was 2.0 (2×) and 2.1 and 2.3 and 1.8 and 2.6. The ALB [2, 6] was 3.2 g/dL and 3.7 g/dL, the ALPK [2, 6] was 90 IU/L and the ALT [2, 6] was 26 IU/L and 24 IU/L and 28 IU/L and 20 IU/L (2×). The AST [2, 6] was 33 IU/L and 28 IU/L, the BUN [2, 6] was 13 mg/dL and 17 mg/dL and 33 mg/dL and 11 mg/dL and 25 mg/dL and the CHOL [2, 6] was 100 mg/dL. The CREA [2, 6] was 0.7 mg/dL and 0.5 mg/dL and 0.9 mg/dL, the Cl [2, 6] was 110 mmo/L and the GLOB [2, 6] was 1.7 g/dL and 2.0 g/dL and 1.4 g/dL. For the same compound, the GLUC [2, 6] was 100 mg/dL and 88 mg/dL and 51 mg/dL and 112 mg/dL and 90 mg/dL and 65 mg/dL, the K [2, 6] was 4.7 mmo/L and 5.8 mmo/L and 5.5 mmo/L and 5.3 mmo/L and the TP [2, 6] was 4.8 g/dL and 5.0 g/dL (2×) and 5.5 g/dL. The TRIG [2, 6] was 26 mg/dL and 34 mg/dL (2×) and 52 mg/dL and 43 mg/dL and 58 mg/dL, the AGR [2, 7] was 2.3 and 2.0 and 1.7 (2×) and 1.6 and the ALB [2, 7] was 3.6 g/dL and 3.2 g/dL. For the same compound, the ALT [2, 7] was 27 IU/L (2×) and 25 IU/L and 24 IU/L and 20 IU/L and 21 IU/L and 40 IU/L and 23 IU/L, the AST [2, 7] was 32 IU/L (2×) and 34 IU/L and 38 IU/L and 31 IU/L and 35 IU/L and 30 IU/L and the BUN [2, 7] was 11 mg/dL (2×) and 16 mg/dL and 15 mg/dL. For the same compound, the CHOL [2, 7] was 147 mg/dL and 125 mg/dL and 124 mg/dL and 182 mg/dL and 169 mg/dL and 176 mg/dL, the CREA [2, 7] was 0.5 mg/dL and the GLOB [2, 7] was 1.6 g/dL and 2.1 g/dL (2×) and 2.0 g/dL. The GLUC [2, 7] was 82 mg/dL and 86 mg/dL and 70 mg/dL and 96 mg/dL and 79 mg/dL and 109 mg/dL and 81 mg/dL, the K [2, 7] was 4.8 mmo/L and 4.6 mmo/L and 5.1 mmo/L and 4.3 mmo/L and 5.3 mmo/L (2×) and 4.9 mmo/L (2×) and the TP [2, 7] was 4.9 g/dL and 5.1 g/dL and 5.6 g/dL and 5.5 g/dL and 5.4 g/dL (2×). The TRIG [2, 7] was 49 mg/dL (2×) and 46 mg/dL and 40 mg/dL and 53 mg/dL (2×) and 44 mg/dL and 34 mg/dL and 41 mg/dL and 55 mg/dL and the “Expected MIC: goal (acceptable range)” value (E. coli ATCC 25922) was 1 (0.5-2) mcg/mL.
Compound CC(S)C(C)S.[Bi] (stereo not shown) [BisBDT, bismuth-2,3-butanedithiol] has an MIC [3] of 4 µg/mL, an MIC (C. parapsilosis; C. parapsilosis MMX 7555, FLU^R, 24 hr) of 0.25 µg/mL and an MIC (C. parapsilosis; C. parapsilosis MMX 7555, FLU^R, 48 hr) of 0.5 µg/mL. The MIC (C. parapsilosis; Lodderomyces parapsilosis, 24 h) was 0.25 µg/mL, the MIC (C. parapsilosis; Lodderomyces parapsilosis, 48 h) was 0.5 µg/mL and the MIC (C. parapsilosis; Lodderomyces parapsilosis, ATCC22019, 24 h) was 0.5 µg/mL. For the same compound, the MIC (C. parapsilosis; Lodderomyces parapsilosis, ATCC22019, 48 h) was 1 µg/mL, the MIC (S. aureus ATCC 29213) was 0.12 µg/mL and the “MIC0 24 hr” value (A. fumigatus; A. fumigatus ATCC MYA-3626, 24 hr) was 2 µg/mL. The “MIC0 24 hr” value (A. fumigatus; A. fumigatus MMX 5934, 24 hr) was 2 µg/mL, the “MEC at 48 hr (MIC0 not observed)” value (A. fumigatus; A. fumigatus MMX 5934, 48 hr) was 4 µg/mL and the MIC (A. fumigatus; ATCC204305, A. fumigatus ATCC 204305, 24 hr, read-out: MIC0 24 hr) was 8 µg/mL. For the same compound, the MIC (A. fumigatus; ATCC204305, A. fumigatus ATCC 204305, 48 hr, read-out: MEC at 48 hr (MIC0 not observed)) was 4 µg/mL, the MIC (A. fumigatus; A. fumigatus ATCC MYA-3626, 48 hr, read-out: MIC0 48 hr) was 4 µg/mL and the MIC (A. fumigatus; A. fumigatus MMX 5939, 24 hr, read-out: MIC0 24 hr) was 2 µg/mL. For the same compound, the MIC (A. fumigatus; A. fumigatus MMX 5939, 48 hr, read-out: MEC at 48 hr (MIC0 not observed)) was 4 µg/mL and the MIC (A. fumigatus; read-out: MIC0 48 hr) was 1 µg/mL.

— patent US11464749B2, “Bismuth-thiol compositions and methods of use” (Microbion Corporation, priority 2018, dated 2022)
